Assay results as given in US10988500B2, “Lipid A mimics, methods of preparation, and uses thereof” (Immunovaccine Technologies Inc., priority 2015, dated 2021).

Columns and labels:
[1] = tested on: C3 tumors (HPV16-expressing C3 cells); assay: C3 tumor challenge, aqueous liposome vaccine (Example 10); format: in vivo, mouse (C57BL6); conditions: for Tumor Volume (mm^3): Table 1, Example 10, FP peptide 10 micrograms + lipid A mimic 10 micrograms in liposomes, water carrier, s.c. on day 5 after C3 implantation; for tumor volumes compared to control groups: at 28 days, liposome vaccine, FIG. 4
Text: (§1) Pathogen-free, female C57BL6 mice, 6-8 weeks of age were purchased from Charles River Laboratories (St. Constant, Quebec, Canada) and were housed according to institutional guidelines with water and food ad libitum under filter controlled air circulation.
(§2) The C3 tumor cell line used in this study is a well-described mouse model for pre-clinical cervical cancer research. HPV16-expressing C3 cells are derived from B6 mouse embryo cells transformed with the complete HPV16 genome under its own promoter and an activated-ras oncogene. The C3 cell line develops tumors when injected subcutaneously and has been used in cancer challenge studies to examine the efficacy of vaccine administered before or after C3 tumor cell implantation. The C3 cell line was maintained in Iscove Modified Dulbecco's Medium (IMDM; Sigma, St. Louis, Mo.) supplemented with 10% heat-inactivated fetal calf serum (Hyclone), 2 mM 1-glutamine, […] 2-mercaptoethanol, penicillin and streptomycin. Cells were incubated at 37° C./5% CO2.
(§3) The HPV16E7 (H-2Db) peptide 49-67, RAHYNIVTF (SEQ ID NO: 1), containing a CTL epitope was fused to PADRE containing a CD4+ T helper epitope by Polypeptide Group (San Diego, Calif., USA). This peptide is hereafter designated as FP.
To formulate the vaccines herein, 160 micrograms of FP was mixed with a DOPC/cholesterol mixture (10:1, w/w, Lipoid GmbH, Germany) dissolved in tert-butanol. When lipid A mimics were included, 160 micrograms of JL-265 or JL-266 were added to the FP/DOPC/chol mixture. The mixture was lyophilized and then reconstituted in reconstituted in […] of sterile water to formulate liposomes containing antigen with or without lipid A mimic. Each vaccine dose was 50 microlitres and contained 10 micrograms of FP peptide with or without 10 micrograms of lipid A mimic (JL-265 or JL-266).
(§4) To test the efficacy of these liposome-based vaccine formulations, groups of mice (7 mice per group) were implanted subcutaneously in the left flank with 5×10E5 C3 cells suspended in 100 microlitres of HBSS media. Five days later, mice were vaccinated subcutaneously in the right flank with 50 microlitres of vaccine. Mice in Group 1 were vaccinated with FP peptide (10 micrograms) in liposomes containing no lipid A mimic. Mice in Group 2 were vaccinated with FP peptide (10 micrograms) in liposomes containing JL-265 (10 micrograms). Mice in Group 3 were vaccinated with FP peptide (10 micrograms) in liposomes containing JL-266 (10 micrograms). Mice in Group 4 served as a tumor growth control and were vaccinated with saline containing no antigen or lipid A mimic.

[2] = tested on: bone marrow dendritic cells of C3H/HeJ (TLR4 mutant) mice; assay: Dendritic cell activation (CD40/CD86, flow cytometry), TLR4 mutant cells (Example 13); format: cell-based, mouse; conditions: FIG. 7; for expression of CD40 and CD86 on CD11c positive dendritic cells, versus wild-type: TLR4 mutant dendritic cells, 20 micrograms/millilitre, overnight stimulation; for induction of CD40 and CD86 relative to LPS: TLR mutant mice dendritic cells
Description: (§5) Pathogen-free, female C3H/HeOuJ (wild-type) mice and C3H/HeJ (TLR4 mutant) mice, 6-8 weeks of age were purchased from the Jackson Laboratory (Bar Harbor, Me., USA) and were housed according to institutional guidelines with water and food ad libitum under filter controlled air circulation.
(§6) Dendritic cells were prepared from bone marrow of either wild-type or TLR4 mutant mice as follows. Femurs and tibia bones were isolated from naïve mice and flushed under sterile conditions with phosphate buffered saline. Red blood cells were lysed using ammonium chloride potassium lysing solution. Cells were counted and resuspended in complete RMPI 1640 media containing 10% fetal bovine serum (Hyclone, Nepean, ON, Canada), 1% penicillin-streptomycin (Gibco, Burlington, ON, Canada), 2 millimolar L-glutamine (Gibco), 1% HEPES buffer (Gibco) and […] beta-mercaptoethanol (Sigma-Aldrich, Oakville, ON, Canada) at a concentration of 1.2×10E6 cells/millitre. Cells were cultured in a 6-well plate supplemented with 10 nanograms/milliliter of GM-CSF (Peprotech, Rocky Hill, N.J., USA) for 8 days, additional media was added on day 3 and day 6. On day 7, cells were stimulated with JL-265 or JL-266 prepared in DMSO, or DMSO vehicle control, or poly I:C (Thermo-Fisher), or lipopolysaccharide (LPS; Sigma-Aldrich). Non-adherent cells were collected on day 8 and stained with fluorochrome-conjugated antibodies specific for CD11c (clone), CD40 (clone) or CD86 (Clone). Cells were analyzed by flow cytometry using a FACSCalibur (BD Bioscience, Mississauga ON, Canada) and Win List 3D 7.0 software (Verity Software House, Topsham, Me., USA).
(§7) Results were analysed by gating first on CD11c positive cells (dendritic cell marker), then determining the percent that were double positive for CD40 or CD86.

[3] = tested on: C3 tumors (HPV16-expressing C3 cells); assay: C3 tumor challenge, DepoVax (DPX) vaccine (Example 12); format: in vivo, mouse (C57BL6); conditions: for tumor volume fold smaller than control DepoVax composition (Group 1): Table 2, DepoVax; for Tumor Volume (mm^3): Table 2, Example 12, FP peptide 10 micrograms + lipid A mimic 10 micrograms in DepoVax, s.c. on day 5 after C3 implantation; for tumor volumes compared to control groups: at 40 days, DPX vaccine, FIG. 6
Text: as §1, §2, §3
(§8) To formulate vaccines described herein, a 10:1 mixture of dioleoyl phosphatidylcholine (DOPC) (120 milligrams/mL) and cholesterol (12 milligrams/mL) was solubilized in tert-butanol. FP antigen was first solubilized in dimethyl sulfoxide, although a water suspension of FP can also be used, and then added to the DOPC/cholesterol/tert-butanol mixture. The lipid A mimics JL-265 and JL-266 were first solubilized in dimethyl sulfoxide. Where indicated, JL-265 or JL-266 were also added to the FP/DOPC/tert-butanol mixture. A dry homogeneous mixture of antigen with or without lipid A mimic was prepared by removing the solvent and water present in the formulation by lyophilization. The dry mixture was then suspended in Incomplete Freund's adjuvant, a mineral oil-based model hydrophobic carrier. This formulation is henceforth referred to as DepoVax (DPX).
as §4, with “oil-based” for “liposome-based”, “(8” for “(7”, “DPX” for “liposomes”

[4] = tested on: bone marrow dendritic cells of C3H/HeOuJ (wild-type) mice; assay: Dendritic cell activation (CD40/CD86, flow cytometry), wild-type cells (Example 13); format: cell-based, mouse; conditions: FIG. 7; for expression of CD40 and CD86 on CD11c positive dendritic cells: wild-type dendritic cells, 20 micrograms/millilitre, overnight stimulation; for induction of CD40 and CD86 relative to LPS: wild-type mice dendritic cells
Description: as §5, §6, §7

[5] = tested on: antigen-specific IFN-gamma response to R9F peptide (splenocytes); assay: IFN-gamma ELISPOT immunogenicity of DPX vaccine (Example 14); format: in vivo, mouse (C57BL6); conditions: R9F+F21E in DPX with 5 micrograms lipid A mimic, FIG. 8; for enhancement of antigen-specific IFN-gamma response to R9F: s.c., spleens eight days after vaccination
Text: as §1
The peptides used in this example were synthesized by Polypeptide Group (San Diego, Calif., USA). Vaccines contained the MHC class I epitope HPV16E7 (H-2Db) 49-67 (RAHYNIVTF, R9F; […]; SEQ ID NO: 23).
as §8, with “R9F and F21E peptide antigens were” for “FP antigen was”, “sulfoxide” for “sulfoxide, although a water suspension of FP can also be used,”
To test the immunogenicity of the vaccine, naïve mice (n=5) were immunized subcutaneously with 50 microlitres of DPX vaccine containing R9F and F21E with no lipid A mimic (Group 1), 5 micrograms of JL-265 (Group 2) or 5 micrograms of JL-266 (Group 3). Mice in Group 4 (n=2) were not immunized and served as the naïve control. Eight days after vaccination, mice in all groups were terminated and spleens collected. A single cell suspension of splenocytes was prepared at a concentration of 5×10E6 cells per milliliter and 100 microlitres added to wells of a 96-well ELISPOT plate pre-coated with anti-IFN-gamma (BD Bioscience). In duplicate, 100 microlitres of media containing 20 micrograms per milliliter of an irrelevant peptide antigen or R9F was added to the splenocytes, or media containing no peptide as a background control. The plate was incubated overnight at 37° C. and developed next day following manufacturers instructions using AEC chromogen (Sigma-Aldrich). Spots were quantified using ELISPOT plate reader (C.T.L., Shaker Heights).

[6] = tested on: C3 tumors (HPV16-expressing C3 cells); assay: C3 tumor challenge, oil-based (IFA) vaccine (Example 11); format: in vivo, mouse (C57BL6); conditions: at 28 days; FP peptide 10 micrograms in oil (IFA) with 10 micrograms lipid A mimic, FIG. 5
Text: as §1, §2, §3
To formulate the vaccine herein, FP peptide was solubilized in dimethyl sulfoxide and mixed with Incomplete Freund's adjuvant (IFA). […]

Compound | Tumor Volume (mm^3) [1] [mm^3] | tumor volumes compared to control groups [1] | expression of CD40 and CD86 on CD11c positive dendritic cells, versus wild-type [2] | induction of CD40 and CD86 relative to LPS [2] | tumor volume fold smaller than control DepoVax composition (Group 1) [3] | Tumor Volume (mm^3) [3] [mm^3] | tumor volumes compared to control groups [3] | expression of CD40 and CD86 on CD11c positive dendritic cells [4] | induction of CD40 and CD86 relative to LPS [4] | enhancement of antigen-specific IFN-gamma response to R9F ([5]; versus no lipid A mimic) | generation of an immune response (IFN-gamma ELISPOT) [5] | tumor volumes compared to control groups [6] | expression of CD40 and CD86 on CD11c positive dendritic cells, versus wild-type ([2]; listed as polyI:C) | increase in the immune response (IFN-gamma ELISPOT) ([5]; versus no lipid A mimic) [fold]
CCCCCCCCCCCCCC(=O)O[C@H](CCCCCCCCCCC)CC(=O)NC1C(OC(=O)C[C@@H](CCCCCCCCCCC)OC(=O)CCCCCCCCCCCCC)[C@H](OP(=O)(O)O)C(CO)O[C@H]1OCCN(C(=O)C[C@@H](CCCCCCCCCCC)OC(=O)CCCCCCCCCCCCC)c1cccc(O)c1 (stereo in doubt) [JL-265] | 319 ± 122 | significantly smaller tumor volumes | significantly reduced | slightly lower induction | about 3.1 fold | 445 ± 395 | significantly smaller tumor volumes | strong increased expression | the same as LPS | did not enhance | capable of generating an immune response | significantly smaller tumor volumes |  | 
lipopolysaccharide [LPS, reference compound] |  |  | significantly reduced |  |  |  |  | increase in expression |  |  |  |  |  | 
poly I:C [reference compound] |  |  | comparably to wild-type dendritic cells |  |  |  |  | increase in expression |  |  |  |  | comparable stimulation | 
CCCCCCCCCCCCCC(=O)O[C@H](CCCCCCCCCCC)CC(=O)NC1C(OC(=O)C[C@@H](CCCCCCCCCCC)OC(=O)CCCCCCCCCCCCC)[C@H](OP(=O)(O)O)C(CO)O[C@H]1OCCN(C(=O)C[C@@H](CCCCCCCCCCC)OC(=O)CCCCCCCCCCCCC)c1cccc(OP(=O)(O)O)c1 (stereo in doubt) [JL-266] | 380 ± 86 | significantly smaller tumor volumes | significantly reduced | slightly lower induction | ~6.3 fold | 219 ± 139 | significantly smaller tumor volumes | strong increased expression | the same as LPS | did |  | significantly smaller tumor volumes |  | ~2
